# Patent publication US20060110456A1, “Method for biocidal and/or biostatic treatment and compositions therefor” (NATIONAL UNIVERSITY OF SINGAPORE, priority 2004, published 2006)
# “Also recorded” adds a separate entry of the source. Where a name gives a salt, the structure may show the parent alone.
# What was measured:
# barnacle cyprids = assay: Cyprid settlement on plastic and glass substrata (IMD, ZPX); assay type: in vivo, Balanus amphitrite
# Method: Assays were then carried out on plastic and glass substrata. […] The wells were then rinsed with clean water, and cyprids added in clean seawater.
# A follow up experiment was carried out to examine the effect of ZPX on barnacle settlement when the experiment is carried out on different substrata. ZPX test solutions were prepared as described above from the tablet. The following test conditions were applied: • (1) Assay was carried out with ZPX test solutions in the 24 well tissue culture plates (as before); • (2) ZPX test solution at 25 ug ml^−1 were applied to the 24 well tissue culture plates and left in the well for 10 minutes. The solution is then discarded and the well was rinsed three times, each time with 2 ml of seawater. Clean seawater was added into each well. • (3) The assay with ZPX test solutions was carried out in glass scintillation bottles.
# Cyprids were obtained and settlement experiments were carried out as described earlier. After 24 hours, the number of cyprids which had settled/attached was counted.
# [1] = test system: marine bacteria (ten strains); assay: Bacteriostatic vs bacteriocidal activity from growth assay: absorbance and CFU counts; assay type: cell-based, marine bacteria isolated from Singapore fouling communities; conditions: 50 μg ml^−1; for Growth assay: 24-hour change in absorbance for ten strains: strains 1, 4, 9, 14, 18, 20, 27, 28, 29, 30
# Method: Bacteria strains (1, 4, 9, 14, 18, 20, 27, 28, 29, 30) representing a variety of morphological types were used.
# For each well, […] of a 100 μg ml^−1 drug solution in sterile distilled water, was added to 45 μl of Marine Broth. Controls for growth consisted of 50 μl of sterile deionized water and 45 μl of marine broth. All wells used for growth studies were prepared in triplicate and inoculated with 5 μl of the bacterial suspension. Blanks consisting of the above volumes of pharmaceutical with Marine Broth and distilled water, were prepared in triplicate and inoculated with 5 μl of sterile seawater. Immediately after adding all the components to the wells for the growth studies, 10 μl was removed and used to inoculate plates of Marine Agar to determine colony-forming units (CFU). The absorbance (A600) of each well was read in the plate reader immediately.
# The inoculated plates of Marine Agar were incubated overnight on a rotary shaker (150 rpm) at 30° C. inside a moistened airtight container. After incubation, the absorbance was read again and another 10 μl was removed and used to inoculate Marine Agar plates to determine CFU.
# The difference in absorbance over 24 hours for each bacterial strain versus controls and treatments were plotted in FIGS. 3 to 6 for each of the four drugs. The data was analyzed using 1-tailed t-test.
# [2] = test system: bacterial biofilms (strains 9, 14, 20, 27 and 28); assay: Effect of ZPX and ZFN on adhesion and removal of biofilms; assay type: cell-based, marine bacteria isolated from Singapore fouling communities; conditions: NTC; for Effect on established bacterial biofilms: 25 ug ml^−1; for Biofilm present after treatment (added with bacteria or after biofilm established): 50 ug ml^−1
# Method: The bacteria were grown, washed and their concentrations were adjusted as described above. The bacterial suspension (75 μl) of strains 9, 14, 20, 27 and 28 in SSW and 50 μl of SDI water were placed into 96 well polystyrene microplates (Falcon 351172). Blank wells were filled with 75 μl of SSW and 50 μl of SDI. Three wells were used for blanks, each control and treatment.
# The cells were allowed to attach to the wells for 2 h. Afterwards, unattached bacteria and liquid in the wells were removed by aspiration and wells were washed with 200 μl of SSW twice using a microplate washer as described above. After washing, 75 μl of SSW were added and 50 μl of SDI to the control (bacterial suspension and SDI as above) and blank (75 μl of SSW and 50 μl of SDI) wells.
# After 2 h, the wells were washed with SSW, washed twice with SDI and stained with crystal violet as described above. After 10 min, the stain was removed, wells were washed twice with SDI, and crystal violet was released from the attached bacteria by adding 200 μl of sodium desoxycholate. After 10 min, absorbance (A590) of each well was read using a plate reader (Tecan Sunrise, Switzerland). Comparisons were made between wells where attached bacteria were exposed to SDI and wells where they were exposed to the pharmaceuticals.
Structure (SMILES),Change in CFU count after 24 hours ([1]; strain 1 (Rhodovulum)),Inhibition of bacterial growth ([1]; strain 1 (Rhodovulum)),Result (bacteriostatic / bacteriocidal / no effect) ([1]; strain 1 (Rhodovulum)),Inhibition of bacterial growth ([1]; strain 4 (Bacillus)),Result (bacteriostatic / bacteriocidal / no effect) ([1]; strain 4 (Bacillus)),Inhibition of bacterial growth ([1]; strain 9 (Bacillus)),Result (bacteriostatic / bacteriocidal / no effect) ([1]; strain 9 (Bacillus)),Change in CFU count after 24 hours ([1]; strain 14 (Vibrio)),Inhibition of bacterial growth ([1]; strain 14 (Vibrio)),Result (bacteriostatic / bacteriocidal / no effect) ([1]; strain 14 (Vibrio)),Inhibition of bacterial growth ([1]; strain 18 (Microbacterium)),Result (bacteriostatic / bacteriocidal / no effect) ([1]; strain 18 (Microbacterium)),Inhibition of bacterial growth ([1]; strain 20),Result (bacteriostatic / bacteriocidal / no effect) ([1]; strain 20),Inhibition of bacterial growth ([1]; strain 27),Result (bacteriostatic / bacteriocidal / no effect) ([1]; strain 27),Inhibition of bacterial growth ([1]; strain 28),Result (bacteriostatic / bacteriocidal / no effect) ([1]; strain 28),Inhibition of bacterial growth ([1]; strain 29),Result (bacteriostatic / bacteriocidal / no effect) ([1]; strain 29),further results
"CN(C)C(=O)C(CCN1CCC(O)(c2ccc(Cl)cc2)CC1)(c1ccccc1)c1ccccc1 [IMD, Loperamide hydrochloride]",,,,,,,,,,,,,,,,,,,,,"Effect of IMD on settlement of cyprids: drug form, solvent, substratum (barnacle cyprids; tablet vs pure compound, DMSO vs DI stock, glass vs plastic, treated and rinsed wells, hydrochloride): no difference in activity between the solutions prepared from tablet and the pure compound; also recorded: no difference between the DMSO and DI prepared stock solutions; also recorded: no difference between glass and plastic; also recorded: no significant IMD residue present on the surfaces"
"CN1CCN(CCCN2c3ccccc3Sc3ccc(Cl)cc32)CC1 [PCZ, prochlorperazine maleate]",0,0,no effect,"+++ (+++ denotes little or no growth, p < 0.001)",bacteriocidal,"+++ (+++ denotes little or no growth, p < 0.001)",bacteriocidal,0,0,no effect,"+++ (+++ denotes little or no growth, p < 0.001)",bacteriostatic,"+++ (+++ denotes little or no growth, p < 0.001)",bacteriostatic,"+++ (+++ denotes little or no growth, p < 0.001)",bacteriocidal,"+++ (+++ denotes little or no growth, p < 0.001)",bacteriostatic,"+++ (+++ denotes little or no growth, p < 0.001)",bacteriocidal,"Killing of bacteria (decrease in absorbance and CFU counts) [1]: strain 14 was not killed; Growth assay: 24-hour change in absorbance for ten strains [1]: only strain numbers 1 and 14 grew in the presence of PCZ; Inhibition of bacterial growth ([1]; strain 30): +++ (+++ denotes little or no growth, p < 0.001); Result (bacteriostatic / bacteriocidal / no effect) ([1]; strain 30): bacteriostatic"
"CNCCC(Oc1ccc(C(F)(F)F)cc1)c1ccccc1 (stereo not shown) [PZC, fluoxetine hydrochloride]",0,0,no effect,"+++ (+++ denotes little or no growth, p < 0.001)",bacteriostatic,"+++ (+++ denotes little or no growth, p < 0.001)",bacteriostatic,0,0,no effect,"+++ (+++ denotes little or no growth, p < 0.001)",bacteriostatic,"+++ (+++ denotes little or no growth, p < 0.001)",bacteriostatic,"+++ (+++ denotes little or no growth, p < 0.001)",bacteriocidal,"+++ (+++ denotes little or no growth, p < 0.001)",bacteriostatic,"+++ (+++ denotes little or no growth, p < 0.001)",bacteriostatic,"Inhibition of bacterial growth ([1]; strain 30): +++ (+++ denotes little or no growth, p < 0.001); Result (bacteriostatic / bacteriocidal / no effect) ([1]; strain 30): bacteriostatic"
"CN1CCN(CCCN2c3ccccc3Sc3ccc(C(F)(F)F)cc32)CC1 [TFZ, Trifluoperazine hydrochloride]",0,0,no effect,"+++ (+++ denotes little or no growth, p < 0.001)",bacteriocidal,"+++ (+++ denotes little or no growth, p < 0.001)",bacteriocidal,0,0,no effect,"+++ (+++ denotes little or no growth, p < 0.001)",bacteriostatic,"+++ (+++ denotes little or no growth, p < 0.001)",bacteriostatic,"+++ (+++ denotes little or no growth, p < 0.001)",bacteriocidal,"+++ (+++ denotes little or no growth, p < 0.001)",bacteriostatic,"+++ (+++ denotes little or no growth, p < 0.001)",bacteriocidal,"Killing of bacteria (decrease in absorbance and CFU counts) [1]: strain 14 was not killed; Growth assay: 24-hour change in absorbance for ten strains [1]: only strain numbers 1 and 14 grew in the presence of TFZ; Inhibition of bacterial growth ([1]; strain 30): +++ (+++ denotes little or no growth, p < 0.001); Result (bacteriostatic / bacteriocidal / no effect) ([1]; strain 30): bacteriostatic"
"Cc1nccn1CC1CCc2c(c3ccccc3n2C)C1=O (stereo not shown) [ZFN, ondansetron hydrochloride]",,,,,,,,,,,,,,,,,,,,,"Effect on established bacterial biofilms [2]: no significant effect; Biofilm present after treatment (added with bacteria or after biofilm established) [2]: Except for strain 28, little or no biofilm was present after treatment"
"Cc1cc2c(s1)Nc1ccccc1N=C2N1CCN(C)CC1 [ZPX, olanzapine]",,,,,,,,,,,,,,,,,,,,,"Effect on established bacterial biofilms [2]: no significant effect; Biofilm present after treatment (added with bacteria or after biofilm established) [2]: Except for strain 28, little or no biofilm was present after treatment; Effect of ZPX on cyprid settlement on different substrata (barnacle cyprids; 24 well tissue culture plates, rinsed ZPX-treated wells (25 ug ml^−1, 10 minutes), glass bottles, 24 hours): no significant difference in settlement between plastic and glass; also recorded: After rinsing, the effect of ZPX in plastic was removed; also recorded: prevents the settlement of barnacle cyprids"
